Values of other authors as cited in patent US20070259053A1, “Inhibition of nephrotoxicity induced by Trasylol® and like agents” (priority 2006, published 2007).
Where two headings read alike, the source gives them in different places.

Tests used:
[1] = tested on: isolated renal brush border membranes; conditions: for effect on binding of gentamicin to isolated renal brush border membranes: isolated BBM
[2] = tested on: renal accumulation of lysozyme; conditions: microinfusion experiments
BBM = conditions: for effect on binding of albumins of increased isoelectric points to BBM: b13: pH 6.5, pI 8.5 albumins
[3] = tested on: toxic effects of spermine and gentamicin
kidney = conditions: noted by autoradiography
[4] = tested on: renal accumulation of gentamicin
[5] = tested on: gentamicin induced renal toxic effects
[6] = tested on: mercury induced acute renal failure; conditions: in vivo
[7] = tested on: renal toxic effects of cisplatin; conditions: bird
[8] = tested on: renal toxic effects of cisplatin; conditions: rat

NCCCNCCCCNCCCN [spermine]
effect on uptake of gentamicin by renal tubular BBM ([1]; renal tubular BBM): inhibited | effect on renal accumulation of lysozyme [2]: inhibited

cytochrome C
effect on renal accumulation of lysozyme [2]: inhibited

[Ca+2] [calcium]
effect on binding of lysozyme to BBM (BBM): decreased | effect on binding of albumins of increased isoelectric points to BBM (BBM): decreased | effect on binding of albumins of increased isoelectric points to BBM (BBM; listed as Ca^++): inhibited | effect on binding of lysozyme to BBM (BBM; listed as Ca^++): inhibited | effect on binding of gentamicin to isolated renal brush border membranes [1]: competitive inhibitor

Cc1ncc(COP(=O)(O)O)c(C=O)c1O [pyridoxal 5′-phsophate, pyridoxal 5′-phosphate]
effect on toxic effects of gentamicin ([3]; in vivo): inhibited | effect on toxic effects of spermine ([3]; positively charged renal toxin spermine): inhibited

aprotinin
time after administration at which level peaked in the kidney (kidney): 72 h | effect on renal absorption of gentamicin ([4]; in vivo): did not unambiguously inhibit | effect on binding of gentamicin to isolated renal brush border membranes [1]: inhibited

NCCCC[C@H](N)C(=O)O [lysine]
effect with the renal toxic effects of gentamicin ([5]; given with gentamicin): additive effect | effect on renal accumulation of lysozyme [2]: inhibited

Myoglobin
effect on renal accumulation of lysozyme [2]: without effect

ribonuclease
effect on renal accumulation of lysozyme [2]: inhibited

C[n+]1cccc(C(N)=O)c1 [N′-methylnicotinamide]
effect on renal accumulation of gentamicin ([4]; rats): inhibited | effect on urinary excretion of gentamicin ([4]; rats): increased

tetralysine
effect on uptake of gentamicin in rat renal cortex ([4]; rat renal cortex): inhibited

Clc1cccc(Cl)c1N=C1NCCN1 [Clonidine]
effect on mercury induced acute renal failure [6]: protected | effect on gentamicin induced renal toxic effects ([5]; rat kidney): inhibited

N.N.[Cl][Pt][Cl] [cisplatin]
effect on transport of N′-methylnicotinamide into vesicles of BBM (vesicles of BBM): inhibited | effect on transport of tetraethylamonium (TEA) into vesicles of BBM (vesicles of BBM): inhibited | effect on uptake of TEA (mouse kidney): inhibited | effect on uptake of p-aminohipputate (mouse kidney): inhibited

N=C(N)NCCC[C@H](N)C(=O)O [L-arginine]
effect on renal accumulation of lysozyme [2]: inhibited

C=C[C@H]1C[N@@]2CC[C@H]1C[C@H]2[C@H](O)c1ccnc2ccc(OC)cc12 [quinine]
effect on renal toxic effects of cisplatin [7]: provided protection | effect on renal toxic effects of cisplatin [8]: provided protection

[Cd] [cadmium]
effect on gentamicin accumulation in the renal cortex ([4]; cadmium treated animals): reduced

polylycine
effect on acute toxic effects of whole animal nephrotoxicity (gentamicin) ([5]; whole animal): lessened | effect on binding of gentamicin to isolated renal brush border membranes [1]: inhibited
